Measurements reported in patent US20250221976A1, “COMPOUNDS, COMPOSITIONS AND METHODS OF TREATING NEUROPATHIC PAIN” (THE UNIVERSITY OF HONG KONG, priority 2024, published 2025).

Legend:
[1] = test system: spared nerve injury (SNI) rat model; test: Pin test, hyperalgesia in SNI rats; format: in vivo; conditions: 50 μg/kg/day intrathecally, from 14 days post injury
From the text: (§1) The SNI surgery was constructed as previously described^16, 17. In brief, after animals were anesthetized by isoflurane (1.5-2.5%), a half centimeter incision was made in the middle of the outer. Muscles from the upper layer were bluntly dissected to expose the sciatic nerve and its branches to the left hind leg's common peroneal, tibial, and peroneal nerves. Then, the front two nerves were clipped, and the […]. In the sham-operated group, the sciatic nerve was only exposed, and no clipping or injury was done. After suturing the skin, animals were transferred to an observation box for recovery.
(§2) Intrathecal administration of vehicle or drugs was conducted by direct lumbar puncture in the L5-L6 intervertebral space with a 30-gauge needle following the method of Mestre^18. This procedure was performed under isoflurane anesthesia to permit rapid recovery of the animals. The quality of each injection was ensured by the observation of an injection-induced tail-flick.
Hyperalgesia was evaluated by pin test described previously^20. […] Normal response (brief flinch) or noxious-like response (sustained elevation of the paw with licking, shaking, or grooming) was recorded in 10 repeated trials with a minimum of 10 seconds' gap. Data was expressed as percentage of noxious-like response out of 10 trials.

NaV1.7 = molecular target: T1, NaV1.7 (Homo sapiens, UniProt Q15858); test: Whole-cell voltage clamp of NaV1.7 currents in transfected HEK293 cells; format: cell-based
T1 construct: conflicts with the methods; host or cells: HEK293
T1 sequence (Q15858 whole entry): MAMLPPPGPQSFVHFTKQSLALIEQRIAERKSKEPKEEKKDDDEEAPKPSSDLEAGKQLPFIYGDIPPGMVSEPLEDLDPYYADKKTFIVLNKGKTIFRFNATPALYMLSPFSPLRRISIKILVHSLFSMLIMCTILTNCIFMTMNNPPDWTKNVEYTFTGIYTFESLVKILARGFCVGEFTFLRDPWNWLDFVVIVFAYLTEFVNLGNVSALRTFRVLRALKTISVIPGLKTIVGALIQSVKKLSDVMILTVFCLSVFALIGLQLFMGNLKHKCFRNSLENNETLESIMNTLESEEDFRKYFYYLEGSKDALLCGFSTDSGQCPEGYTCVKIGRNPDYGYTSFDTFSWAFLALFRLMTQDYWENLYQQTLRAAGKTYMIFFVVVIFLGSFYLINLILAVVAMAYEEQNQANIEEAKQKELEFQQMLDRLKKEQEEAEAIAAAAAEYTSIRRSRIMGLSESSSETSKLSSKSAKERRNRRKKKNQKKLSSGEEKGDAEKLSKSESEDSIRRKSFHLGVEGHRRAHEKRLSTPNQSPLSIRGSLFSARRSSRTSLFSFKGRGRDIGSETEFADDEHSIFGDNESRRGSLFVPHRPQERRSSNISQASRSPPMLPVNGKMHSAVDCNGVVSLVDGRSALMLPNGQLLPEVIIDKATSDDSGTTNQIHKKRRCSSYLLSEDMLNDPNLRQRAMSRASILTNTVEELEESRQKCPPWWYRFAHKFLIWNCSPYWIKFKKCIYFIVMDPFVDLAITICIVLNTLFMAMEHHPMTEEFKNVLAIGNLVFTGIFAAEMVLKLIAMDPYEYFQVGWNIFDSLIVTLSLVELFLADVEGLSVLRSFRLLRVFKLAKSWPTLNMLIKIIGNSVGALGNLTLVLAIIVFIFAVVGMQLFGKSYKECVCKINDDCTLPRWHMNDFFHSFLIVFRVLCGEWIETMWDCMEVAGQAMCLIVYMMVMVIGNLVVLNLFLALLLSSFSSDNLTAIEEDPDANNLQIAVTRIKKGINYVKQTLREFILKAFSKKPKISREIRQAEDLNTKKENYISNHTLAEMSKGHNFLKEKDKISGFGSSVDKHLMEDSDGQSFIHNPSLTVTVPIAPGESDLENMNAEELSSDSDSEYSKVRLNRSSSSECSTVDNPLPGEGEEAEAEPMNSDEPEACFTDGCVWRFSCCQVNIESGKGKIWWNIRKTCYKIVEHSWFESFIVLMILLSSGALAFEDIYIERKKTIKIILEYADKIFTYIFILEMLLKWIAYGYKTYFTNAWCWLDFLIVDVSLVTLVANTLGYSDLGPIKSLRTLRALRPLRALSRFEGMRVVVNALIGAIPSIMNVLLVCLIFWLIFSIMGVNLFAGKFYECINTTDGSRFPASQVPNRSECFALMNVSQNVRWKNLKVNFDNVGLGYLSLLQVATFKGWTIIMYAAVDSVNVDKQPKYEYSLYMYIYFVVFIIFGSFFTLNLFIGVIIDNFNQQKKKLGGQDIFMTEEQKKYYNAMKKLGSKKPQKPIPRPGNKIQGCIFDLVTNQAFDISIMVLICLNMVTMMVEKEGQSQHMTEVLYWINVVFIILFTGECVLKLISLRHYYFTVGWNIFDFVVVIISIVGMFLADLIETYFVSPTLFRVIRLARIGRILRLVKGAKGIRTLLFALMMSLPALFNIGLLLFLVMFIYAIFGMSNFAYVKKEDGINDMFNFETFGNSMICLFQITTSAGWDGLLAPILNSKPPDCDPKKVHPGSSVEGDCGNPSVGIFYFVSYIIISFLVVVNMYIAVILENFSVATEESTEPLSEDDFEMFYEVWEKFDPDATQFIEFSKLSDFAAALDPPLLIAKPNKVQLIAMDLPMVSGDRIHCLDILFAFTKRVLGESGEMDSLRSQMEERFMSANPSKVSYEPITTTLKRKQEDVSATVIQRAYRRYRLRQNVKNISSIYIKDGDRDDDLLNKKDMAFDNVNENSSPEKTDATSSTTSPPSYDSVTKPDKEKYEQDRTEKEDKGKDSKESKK
Protocol: HEK293 cells were purchased from Shanghai Institute of Biological Sciences, Chinese Academy of Sciences. HEK293 cells were cultured in medium (DMEM containing 10% fetal bovine serum and 1% penicillin/streptomycin) in an atmosphere of 5% CO2 at 37° C.
The NaV1.7 sequence was synthesized by GenScript (Nanjing, Jiangsu Province, China) and inserted into the pcDNA3.1 (+)-C-DYK plasmid between the BamH1 and EcoRI restriction sites. The empty plasmid of pcDNA3.1 purchased from Shenzhen Yanming Biotechnology Company was used as a mock transfection control. […]
(§3) Whole-cell voltage clamp recording was performed as previously described. […] Data were obtained by Patchmaster (HEKA) and analyzed with Fitmaster (HEKA). […]
(§4) NaV currents were measured from rodent DRG small diameter (<30 μm) neurons. […] This process occurs between 0 and 10 mV and can be analyzed as a function of voltage, as inferred from the peak current density (normalized to the cell capacitance (picofarad, pF)); (ii) Inactivation protocol: starting from a clamp potential of −60 mV, a hyperpolarization/depolarization pulse of 1 second in the range of −120 to 20 mV, in steps of +10 mV for 1 second. […] The Boltzmann relevant factors, similar to half-maximal activation (V50) and slope, for the single fits to the data, are calculated, summarized, and compared among groups. […]

NRF2 = test: Immunoblot of NRF2 expression in L4-L6 DRG of SNI rats; format: in vivo, rat; conditions: 50 μg/kg, DRG collected 3 h after administration, versus vehicle
From the text: as §1, §2
For western blotting, L4-6 DRGs were extracted from the ipsilateral surgery of SNI rats and stored in liquid nitrogen to be set aside. DRGs were then sheared in pre-cooled potent RIPA lysate (containing protease and phosphatase inhibitors) and their whole cell lysates were obtained by ultrasonic crushing on ice. […] Immunoreactive bands were detected by chemiluminescence.

[2] = test system: voltage-gated sodium (NaV) channels; test: Whole-cell voltage clamp of NaV currents in small diameter DRG neurons; format: cell-based, rat; conditions: primary cultured small diameter (<30 μm) DRG neurons, 20 μM overnight
Protocol: DRG neurons were obtained from rodents by acute isolation as previously described^21, 22. After animals were euthanized, the dorsal skin was removed to perform laminectomy to expose DRG, L4-L6 DRGs were rapidly collected from the intervertebral foramen. The collected DRGs were digested in 3 mL bicarbonate-free, serum-free, sterile DMEM (cat. no. 11965; Thermo Fisher Scientific) containing a mixture of enzymes (neutral protease, 3.125 mg/mL (cat. no. LS02104; Worthington) and collagenase Type I 5 mg/mL (cat. no. LS004194; Worthington)), incubated in a shaker at 37° C. […]
as §3, §4

ROS level in DRG neurons = ROS level in DRG neurons by DCFH-DA flow cytometry; format: in vivo, rat; conditions: SNI rats, 50 μg/kg i.th, 3 h after administration, versus vehicle
From the text: as §1
Intrathecal administration of vehicle or drugs was conducted by direct lumbar puncture in the L5-L6 intervertebral space with a 30-gauge needle following the method of Mestre^18. […]
ROS level of DRG neurons were labeled by ROS Assay Kit (Beyotime Co., Ltd., China) and detected by flow cytometry according to the manufacturer's instructions. […] However, after entering the cell, DCFH-DA is hydrolyzed by cellular esterase to generate DCFH (2′,7′-dichlorodihydrofluorescein), which is non-permeable to the cell membrane, and can be oxidized by ROS into fluorescent DCF (2′,7′-dichlorofluorescein) that can be detected by flow cytometry. The fluorescence intensity represents the intracellular ROS levels.

[3] = test system: spared nerve injury (SNI) rat model; test: Von Frey test, mechanical allodynia in spared nerve injury (SNI) rats; format: in vivo; conditions: 50 μg/kg/day intrathecally, from 14 days post injury
From the text: as §1, §2
Assessment of mechanical allodynia was using the Von Frey test as previously described^17. The animals were placed in plastic cages with metal mesh on the bottom and allowed to acclimatize for at least half an hour before each test. Each Von Frey wire was held perpendicular to the contact surface of the paw until it bent. […]

[4] = test system: spared nerve injury (SNI) rat model; test: Acetone test, cold allodynia in SNI rats; format: in vivo; conditions: 50 μg/kg/day intrathecally, from 14 days post injury
From the text: as §1, §2
Assessment of cold allodynia was using acetone test^20. Animals were placed in the assessment cage described above for habituation. Acetone was collected by pipette for each trial. […] As the acetone fast spread across the plantar skin and evaporated, noxious withdrawal responses of the hind paw (fluttering, licking, or hanging) against the cold stimuli was recorded. […]

inhibition of NaV1.7 current density under excessive oxidative stress (NaV1.7; HEK293 cells transfected with NaV1.7, pre-treated with H2O2 (500 μM, 20 min), then 20 μM overnight): Same inhibiting properties
Compound: Cc1ccc(-c2noc(-c3ccc(F)c(F)c3)n2)cn1 [Compound 1, 5-(3,4-difluorophenyl)-3-(6-methylpyridin-3-yl)-1,2,4-oxadiazole]
max inhibiting rate in hyperalgesia [1]: ~37.5% | inhibition of NaV1.7 current density (NaV1.7; HEK293 cells transfected with NaV1.7 plasmid, 20 μM overnight): significantly inhibited NaV1.7 current density | expression level of NRF2 in L4-L6 DRG (NRF2): increased the expression level of NRF2 | inhibition of NaV currents [2]: significant inhibition of NaV currents | ROS level in DRG neurons (DCF staining) (ROS level in DRG neurons): decreased | max inhibiting rate in mechanical allodynia [3]: about 70.0% | max inhibiting rate in cold allodynia [4]: ~35.0%
